Source: paper PMC11436758, “Computer-aided drug design to generate a unique antibiotic family” (Nature Communications, 2024)
Converted amounts (≈) assume the structure as drawn. “And” between values parts separate entries of the source, which are not always exact repeats. Equal entries are not always repeated.

Key:
AcpS^H-/108A = biological target: T1, AcpS^H-/108A (Escherichia coli, UniProt P24224, H108A); assay: Inhibition of purified AcpS site-directed mutant by DNM0547; type: biochemical, E. coli; settings: for AcpS rate nM/min, Mean / AcpS rate: Suppl Fig 3, [AcpS_H108A] 5nM; for AcpS rate: replicates
T1 construct: 6x-His (C); made in house

S. aureus (MSSA) = assay: MIC, clinical and laboratory strains; type: cell-based
Protocol: (§1) The medium employed for the assay was Mueller Hinton II Broth (MHB II; Becton-Dickinson, Sparks, MD, USA). Agar plates used for the organisms were trypticase soy agar plus 5% sheep blood (BD; Sparks, MD, USA). MIC assay plates were prepared using the CLSI broth microdilution procedure. Automated liquid handlers (Multidrop 384, Biomek 2000 and Biomek FX) were used to conduct serial dilutions and liquid transfers. A standardized inoculum of each organism was prepared per CLSI methods. Suspensions were prepared to equal a 0.5 McFarland standard, followed by a 1:20 dilution in test media. The inocula were dispensed into sterile reservoirs divided by length (Beckman Colter) and the Biomek 2000 was used to inoculate the plates. Daughter plates were placed on the Biomek 2000 work surface in reverse orientation so that inoculation took place from low to high drug concentration. The Biomek 2000 delivered 10 μL of the diluted suspension into each well. These inoculations yielded a final cell concentration in the daughter plates of ~5 × 10^5 colony-forming units/mL in each well. The wells of the daughter plates ultimately contained 185 μL of broth, 5 μL of drug solution, and 10 μL of bacterial inoculum. Plates were covered with a sterile lid on the top plate, placed in plastic bags, and incubated at 35 °C for ~18 h. The microplates were viewed from the bottom using a plate viewer and the MIC was read. The MIC was recorded as the lowest concentration of drug that inhibited visible growth of the organism.

S. epidermidis (MRSE) = assay: MIC, clinical and laboratory strains; type: cell-based
Protocol: as §1

S. epidermidis (MSSE) = assay: MIC, clinical and laboratory strains; type: cell-based
Protocol: as §1

MRSA (ATCC 33591) = assay: Mouse cellulitis model of infection, topical treatment; type: in vivo, SKH1 mice; settings: for Wound size (mm2), Mean / Wound size (mm2): Fig 2d
Protocol: SKH1 mice from Charles River were used and male and female mice were utilized, sample size prevented disaggregation of data by sex. Mice were housed with a 12 h light and dark cycle at 21 °C in relative humidity of 40–50%. Investigators were blinded to group allocation, data collection, and data analysis. The formulation for delivery of DNM0547 was Glaxal base (WellSpring Pharmaceutical Canada Corp., Oakville, Canada). Formulation was performed by dissolving compound in Glaxal base to give final concentrations of 2% DNM0547 compound (w/v). MRSA (ATCC #33591) were grown to mid-log phase, concentrated by centrifugation and suspended in sterile PBS at a stock concentration of 2 × 10^11 CFU/mL.
Four week old mice were anesthetized and injected intradermally with 1 × 10^8 CFU/mouse. 4 h after injection, mice were treated with 50 μl 2% DNM0547 cream, or excipient alone. Lesion dimensions were recorded daily for seven days. Food and water were given ad libidum. On day seven, mice were euthanized and the lesion area aseptically removed to 3 mL sterile PBS. The samples were homogenized and serial dilutions were plated on blood agar and incubated at 37 °C to determine CFU. The mouse model of skin infection was performed and evaluated with Washington Biotechnology Inc (Baltimore, MD, USA).

[1] = Histopathology (H&E) of treated rabbit ischemic ear wounds, dermal toxicity
Protocol: Wounds were excised, fixed, and routine H&E staining was performed. Wounds were examined for pathology and scored in a blinded manner.
Post-wounding, under anesthesia, animals were euthanized with an intravenous injection of Beuthanasia-D at a dosage of 150 mg/kg of body weight. Specimens including the entire wound, along with ~2–3 mm of the normal unwounded skin margins were harvested. Each ear wound specimen was sectioned into halves. For one half of the wound, the wound was placed into a container with 10% neutral buffered formalin and processed for routine histological evaluation. Wounds were scored on a scale of 0–4 at the wound site for erythema, edema, inflammation, granulation, angiogenesis, and epithelialization. Wounds were characterized in a blinded manner by a board-certified member of the College of American Pathologists.

[2] = 2% cream for 7 days, versus vehicle control

T1 sequence (P24224 whole entry H108A): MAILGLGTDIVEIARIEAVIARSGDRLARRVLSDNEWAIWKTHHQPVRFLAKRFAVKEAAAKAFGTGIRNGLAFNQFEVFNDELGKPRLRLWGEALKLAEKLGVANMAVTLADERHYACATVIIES

Compound: CC(C)c1cc(Cl)ccc1-c1cc(-c2nnn[nH]2)c(-c2ccc(Cl)cc2C(C)C)s1 [DNM0547]
- IC50 (AcpS^H-/108A): 5.6 µM
- AcpS rate nM/min, Mean (AcpS^H-/108A; Drug Conc 1 uM): 7.81 nM/min
- AcpS rate (AcpS^H-/108A; Drug Conc 1 uM): 7.96 nM/min and 7.81 nM/min and 7.64 nM/min
- AcpS rate nM/min, Mean (AcpS^H-/108A; Drug Conc 2 uM): 6.86 nM/min
- AcpS rate (AcpS^H-/108A; Drug Conc 2 uM): 6.91 nM/min and 7.01 nM/min and 6.66 nM/min
- AcpS rate nM/min, Mean (AcpS^H-/108A; Drug Conc 4 uM): 4.72 nM/min
- AcpS rate (AcpS^H-/108A; Drug Conc 4 uM): 4.74 nM/min and 4.76 nM/min and 4.66 nM/min
- AcpS rate nM/min, Mean (AcpS^H-/108A; Drug Conc 8 uM): 3.23 nM/min
- AcpS rate (AcpS^H-/108A; Drug Conc 8 uM): 2.93 nM/min and 3.30 nM/min and 3.44 nM/min
- AcpS rate nM/min, Mean (AcpS^H-/108A; Drug Conc 16 uM): 2.83 nM/min
- AcpS rate (AcpS^H-/108A; Drug Conc 16 uM): 3.20 nM/min and 2.39 nM/min and 2.90 nM/min
- AcpS rate nM/min, Mean (AcpS^H-/108A; Drug Conc 32 uM): 1.69 nM/min
- AcpS rate (AcpS^H-/108A; Drug Conc 32 uM): 1.65 nM/min and 1.74 nM/min and 1.68 nM/min
- AcpS rate nM/min, Mean (AcpS^H-/108A; Drug Conc 64 uM): 1.60 nM/min
- AcpS rate (AcpS^H-/108A; Drug Conc 64 uM): 1.52 nM/min and 1.63 nM/min and 1.65 nM/min
- AcpS rate nM/min, Mean (AcpS^H-/108A; Drug Conc 128 uM): 1.34 nM/min
- AcpS rate (AcpS^H-/108A; Drug Conc 128 uM): 1.38 nM/min and 1.44 nM/min and 1.20 nM/min
- remaining activity at 1 µM (AcpS^H-/108A; read-out: % of untreated, Suppl Fig 3, [AcpS_H108A] 5nM, Drug Conc 1 uM, replicates): 105%
- remaining activity at 2 µM (AcpS^H-/108A; read-out: % of untreated, Suppl Fig 3, [AcpS_H108A] 5nM, Drug Conc 2 uM, replicates): 90.9%
- remaining activity at 4 µM (AcpS^H-/108A; read-out: % of untreated, Suppl Fig 3, [AcpS_H108A] 5nM, Drug Conc 4 uM, replicates): 62.4%
- remaining activity at 8 µM (AcpS^H-/108A; read-out: % of untreated, Suppl Fig 3, [AcpS_H108A] 5nM, Drug Conc 8 uM, replicates): 38.5%
- remaining activity at 16 µM (AcpS^H-/108A; read-out: % of untreated, Suppl Fig 3, [AcpS_H108A] 5nM, Drug Conc 16 uM, replicates): 42.1%
- remaining activity at 32 µM (AcpS^H-/108A; read-out: % of untreated, Suppl Fig 3, [AcpS_H108A] 5nM, Drug Conc 32 uM, replicates): 21.7%
- remaining activity at 64 µM (AcpS^H-/108A; read-out: % of untreated, Suppl Fig 3, [AcpS_H108A] 5nM, Drug Conc 64 uM, replicates): 20%
- remaining activity at 128 µM (AcpS^H-/108A; read-out: % of untreated, Suppl Fig 3, [AcpS_H108A] 5nM, Drug Conc 128 uM, replicates): 18.1%
- MIC (S. aureus (MSSA); S. aureus (MSSA) 2127): 1 µg/mL (≈ 2.19 µM)
- MIC (S. aureus (MSSA); S. aureus (MSSA) 6167): 2 µg/mL (≈ 4.37 µM)
- MIC (S. aureus (MSSA); S. aureus (MSSA) 6168): 1 µg/mL (≈ 2.19 µM)
- MIC (S. aureus (MSSA); S. aureus (MSSA) 6170): 1 µg/mL (≈ 2.19 µM)
- MIC (S. aureus (MSSA); S. aureus (MSSA) 6316): 2 µg/mL (≈ 4.37 µM)
- MIC (S. aureus (MSSA); S. aureus (MSSA) 6317): 1 µg/mL (≈ 2.19 µM)
- MIC (S. aureus (MSSA); S. aureus (MSSA) 6318): 1 µg/mL (≈ 2.19 µM)
- MIC (S. aureus (MSSA); S. aureus (MSSA) 6499): 2 µg/mL (≈ 4.37 µM)
- MIC (S. aureus (MSSA); S. aureus (MSSA) 6500): 1 µg/mL (≈ 2.19 µM)
- MIC (S. aureus (MSSA); S. aureus (MSSA) 6502): 1 µg/mL (≈ 2.19 µM)
- MIC (S. epidermidis (MRSE); S. epidermidis (MRSE) 3679): 2 µg/mL (≈ 4.37 µM)
- MIC (S. epidermidis (MRSE); S. epidermidis (MRSE) 3680): 2 µg/mL (≈ 4.37 µM)
- MIC (S. epidermidis (MRSE); S. epidermidis (MRSE) 3681): 1 µg/mL (≈ 2.19 µM)
- MIC (S. epidermidis (MRSE); S. epidermidis (MRSE) 3683): 2 µg/mL (≈ 4.37 µM)
- MIC (S. epidermidis (MRSE); S. epidermidis (MRSE) 3745): 8 µg/mL (≈ 17.5 µM)
- MIC (S. epidermidis (MRSE); S. epidermidis (MRSE) 3746): 2 µg/mL (≈ 4.37 µM)
- MIC (S. epidermidis (MRSE); S. epidermidis (MRSE) 3747): 2 µg/mL (≈ 4.37 µM)
- MIC (S. epidermidis (MSSE); S. epidermidis (MSSE) 3234): 4 µg/mL (≈ 8.74 µM)
- MIC (S. epidermidis (MSSE); S. epidermidis (MSSE) 3602): 2 µg/mL (≈ 4.37 µM)
- MIC (S. epidermidis (MSSE); S. epidermidis (MSSE) 3609): 4 µg/mL (≈ 8.74 µM)
- MIC (S. epidermidis (MSSE); S. epidermidis (MSSE) 3617): 1 µg/mL (≈ 2.19 µM)
- MIC (S. epidermidis (MSSE); S. epidermidis (MSSE) 3620): 2 µg/mL (≈ 4.37 µM)
- MIC (S. epidermidis (MSSE); S. epidermidis (MSSE) 3621): 1 µg/mL (≈ 2.19 µM)
- reduction in wound size (MRSA (ATCC 33591); [2]): 4 fold
- reduction of bacterial load (MRSA (ATCC 33591); [2]): > 98%
- CFUs (MRSA (ATCC 33591); Fig 2e, individual animals): 66 CFUs and 3900 CFUs and 0 CFUs (2×) and 57 CFUs
- Wound size (mm2), Mean (MRSA (ATCC 33591); Day 1): 14.643 mm2
- Wound size (mm2), Mean (MRSA (ATCC 33591); Day 2): 24.6313 mm2
- Wound size (mm2), Mean (MRSA (ATCC 33591); Day 3): 14.2828 mm2
- Wound size (mm2), Mean (MRSA (ATCC 33591); Day 4): 14.2975 mm2
- Wound size (mm2), Mean (MRSA (ATCC 33591); Day 5): 12.6205 mm2
- Wound size (mm2), Mean (MRSA (ATCC 33591); Day 6): 11.8387 mm2
- Wound size (mm2), Mean (MRSA (ATCC 33591); Day 7): 14.2246 mm2
- Wound size (mm2) (MRSA (ATCC 33591); individual animals, Day 1): 12.5374 mm2 and 14.3799 mm2 and 14.54 mm2 and 15.8884 mm2 and 15.87 mm2
- Wound size (mm2) (MRSA (ATCC 33591); individual animals, Day 2): 25.0932 mm2 and 30.8908 mm2 and 21.02 mm2 and 14.3128 mm2 and 31.84 mm2
- Wound size (mm2) (MRSA (ATCC 33591); individual animals, Day 3): 14.5538 mm2 and 21.2799 mm2 and 9.59 mm2 and 10.8726 mm2 and 15.12 mm2
- Wound size (mm2) (MRSA (ATCC 33591); individual animals, Day 4): 15.4052 mm2 and 19.652 mm2 and 13.70 mm2 and 11.5756 mm2 and 11.16 mm2
- Wound size (mm2) (MRSA (ATCC 33591); individual animals, Day 5): 9.8797 mm2 and 13.6551 mm2 and 8.00 mm2 and 10.1736 mm2 and 21.40 mm2
- Wound size (mm2) (MRSA (ATCC 33591); individual animals, Day 6): 12.7154 mm2 and 14.2046 mm2 and 11.72 mm2 and 7.547 mm2 and 13.01 mm2
- Wound size (mm2) (MRSA (ATCC 33591); individual animals, Day 7): 15.755 mm2 and 18.619 mm2 and 16.44 mm2 and 5.851 mm2 and 14.46 mm2
- toxicity to dermal cells, histopathology ([1]; 2% cream, 18 days of exposure of the rabbit ear wound): no indication of toxicity
- erythema, edema, angiogenesis and epithelization scores ([1]; 2% cream, 18 days, compared to 2% mupirocin or cream control): improved
- Angiogenesis ([1]; Suppl Fig 7, score per wound): 1 and 2
- Edema ([1]; Suppl Fig 7, score per wound): 1 and 2
- Erythema ([1]; Suppl Fig 7, score per wound): 1 and 2
- Granulation ([1]; Suppl Fig 7, score per wound): 2 and 1
- Inflammation ([1]; Suppl Fig 7, score per wound): 2 and 3 and 4
